Values after ≈ are worked out from the molar mass of the structure shown.
Key:
Type in all cases: cell-based
[1] = tested on: methicillin-resistant Staphylococcus aureus (MRSA) isolated from humans; test: Antibacterial activity (IC), Mueller-Hinton agar containing the sample (Example 8, Table 43); conditions: Staphylococcus aureus, MRSA, 18 h
Protocol: (§1) The antibacterial action was evaluated by the inhibitory concentration (hereinafter abbreviated as IC) at which propagation of the bacteria cultured at 37°C for 18 hours was inhibited. Inhibition was determined by the turbidity of the medium. The expressions "IC≤100", "≤10", and "≤1" indicate that MIC-equivalent values obtained at the succesive […] dilution of the sample are 100-10 µg/ml, 10-1 µg/ml, and not more than 1 µg/ml, respectively. […] (In the subsequent Examples, the same rule applies correspondingly.) Table 39
(§2) A suitable amount of a sample was dissolved in dimethylsulfoxide (DMSO), after which the resulting solution was diluted with the same amount of sterilized distilled water to prepare a bulk sample of 1,000 µg/ml. Separately, a bacterial liquid for the test (methicillin-resistant Staphylococcus aureus (MRSA) isolated from humans) which had been cultured in Mueller-Hinton broth (product of DIFCO) was prepared and inoculated to a Mueller-Hinton agar (product of DIFCO) containing the sample so that the final inoculation amount of 10^6 CFU/ml was achieved. The final concentrations of the samples were 100, 10, and 1 µg/ml.
(§3) After culturing at 37°C for 18 hours, the antibacterial activity was evaluated in terms of IC in a manner similar to that described in Example 4.

[2] = tested on: Staphylococcus aureus 209-P; test: Antibacterial activity (IC), Mueller-Hinton broth, 96-well microplate (Example 4, Table 39); conditions: 37°C, 18 hours
Protocol: (§4) A suitable amount of a sample was dissolved in dimethylsulfoxide (DMSO), and the resultant solution was diluted with the same amount of sterilized distilled water to prepare a bulk sample of 1,000 µg/ml. Mueller-Hinton broth (product of DIFCO) was dispensed into each well of 96-well microplate. Thereafter, the bulk specimen was added to the first well of a row, and successively diluted (10-fold each time) with sterilized distilled water. Separately, a bacterial cell suspension for the test (Staphylococcus aureus 209-P) which had been cultured in the above-mentioned broth overnight at 37°C was inoculated to each well so that the final inoculation amount of 10^6 CFU/ml was attained. The final concentrations of the samples were 100, 10, and 1 µg/ml.
as §1

[3] = tested on: Staphylococcus aureus TI-1; test: Antibacterial activity (IC), broth microplate as in Example 4 (Example 5, Table 40); conditions: TI1, 18 h
Protocol: as §4, §1
In a manner similar to that described in Example 4, antibacterial activity of the invention compound was determined. The bacterium used for the test was Staphylococcus aureus TI-1.

[4] = tested on: Pasteurella multocida (Kobe-6); test: Antibacterial activity (IC), broth microplate as in Example 4 (Example 6, Table 41); conditions: 18 h, origin pig
Protocol: as §4, §1
In a manner similar to that described in Example 4, antibacterial activity of the invention compound was determined. The bacterium used for the test was Pasteurella Kobe-6 (origin: pig; Pasteurella multocida).

[5] = tested on: Bordetella bronchiseptica (SM2-4); test: Antibacterial activity (IC), broth microplate as in Example 4 (Example 7, Table 42); conditions: 18 h
Protocol: as §4, §1
In a manner similar to that described in Example 4, antibacterial activity of the invention compound was determined. The bacterium used for the test was Bordetella bronchiseptica (SM2-4).

[6] = tested on: methicillin-resistant Staphylococcus aureus (MRSA) from humans; test: Antibacterial activity (IC), agar as in Example 8 (Example 19, Table 52); conditions: 18 h
Outline: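 MRSA human isolate at 10^6 CFU/ml on Mueller-Hinton agar containing compound at 100, 10 or 1 µg/ml, grown 18 h at 37 °C. IC is the lowest tested level that inhibited growth, binned as ≤100, ≤10 or ≤1 µg/ml.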

[7] = tested on: Pasteurella multocida (Kobe-6); test: Antibacterial activity (IC), agar as in Example 8 (Example 17, Table 50); conditions: 18 h, origin pig
Outline: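 Agar dilution on Mueller-Hinton agar with compound at 100, 10 and 1 µg/ml, inoculated at 10^6 CFU/ml with pig-origin strain Kobe-6. After 18 h at 37 °C, IC scored from turbidity and reported as a band (≤100, ≤10, ≤1 µg/ml).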

[8] = tested on: Streptococcus aureus (TI-1); test: Antibacterial activity (IC), agar as in Example 8 (Example 16, Table 49); conditions: 18 h
Outline: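 Compound at final 100, 10 or 1 µg/ml in Mueller-Hinton agar, inoculated with […] aureus (TI-1) at 10^6 CFU/ml and cultured 37°C for 18 h. Inhibition read from medium turbidity; IC given as 100-10, 10-1 or ≤1 µg/ml ranges from 2-fold dilution.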

Pasteurella from fish = test: Antibacterial activity (IC), agar as in Example 8, media with 1.5% NaCl, 25°C (Example 20, Tables 53-55); conditions: for MIC: Pasteurella piscicida KP94-02
Outline: (§5)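 Growth inhibition was scored by turbidity after culture at 25°C, with IC bands set from 2-fold-dilution MIC-equivalents. Samples were tested at final 100, 10 and 1 µg/ml in Mueller-Hinton agar with 1.5% NaCl, seeded with 10^6 CFU/ml of the fish isolates.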

Enterococcus from fish = test: as above; conditions: for MIC: Enterococcus Seriolicida SE94-002
Outline: as §5

[9] = tested on: Staphylococcus aureus (209-P); test: Antibacterial activity (IC), agar as in Example 8 (Example 15, Table 48); conditions: 18 h
Outline: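 Samples in DMSO, diluted with sterile water, incorporated into Mueller-Hinton agar at 1, 10 and 100 µg/ml final. Bacteria seeded at 10^6 CFU/ml and grown 18 h at 37°C. Inhibition read as turbidity; values reported as IC ranges rather than exact MICs.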

[10] = tested on: Bordetella bronchiseptica (S1); test: Antibacterial activity (IC), agar as in Example 8 (Example 18, Table 51); conditions: 18 h
Protocol: as §1, §2, §3
(§6) In a manner similar to that described in Example 8, antibacterial activity of the invention compound was determined. The bacterium used for the test was Bordetella bronchiseptica (S1) and Bordetella bronchiseptica (SM2-4).

[11] = tested on: Bordetella bronchiseptica (SM2-4); test: as above; conditions: 18 h
Protocol: as §1, §2, §3, §6

[12] = Enterococcus Seriolicida KG86050
[13] = Enterococcus Seriolicida MS89060
[14] = Enterococcus Seriolicida MS89064
[15] = Enterococcus Seriolicida MS89066
[16] = Enterococcus Seriolicida MS89068
[17] = Enterococcus Seriolicida SE94-001
[18] = Enterococcus Seriolicida SE94-003
[19] = Enterococcus Seriolicida SE94-004
[20] = Enterococcus Seriolicida SE94-005

Compound	MIC ([1]; MRSA strain 891179, 37°C) [µg/mL]	MIC ([1]; MRSA strain 891185, 37°C) [µg/mL]	MIC ([1]; MRSA strain 891187, 37°C) [µg/mL]	MIC ([1]; MRSA strain 891192, 37°C) [µg/mL]	MIC ([1]; MRSA strain 900048, 37°C) [µg/mL]	MIC ([1]; MRSA strain 900056, 37°C) [µg/mL]	MIC [2] [µg/mL]	MIC [3] [µg/mL]	MIC [4] [µg/mL]	MIC [5] [µg/mL]	MIC ([6]; MRSA strain 891179) [µg/mL]	MIC ([6]; MRSA strain 891185) [µg/mL]	MIC ([6]; MRSA strain 891187) [µg/mL]	MIC ([6]; MRSA strain 891192) [µg/mL]	MIC ([6]; MRSA strain 900048) [µg/mL]	MIC ([6]; MRSA strain 900056) [µg/mL]	MIC [7] [µg/mL]	MIC [8] [µg/mL]	MIC (Pasteurella from fish) [µg/mL]	IC (Pasteurella from fish; Pasteurella piscicida KP94-04)	other results
Cc1cc(Oc2ccc(C(F)(F)F)cc2Cl)ccc1OC(C)C(=O)C(C#N)c1ccc(Cl)c(Cl)c1 (stereo not drawn) [compound 46]	1 to 10 (≈ 1.84 to 18.4 µM)	1 to 10 (≈ 1.84 to 18.4 µM)	≤ 1	1 to 10 (≈ 1.84 to 18.4 µM)	≤ 1	≤ 1	1 to 10 (≈ 1.84 to 18.4 µM)	≤ 1	10 to 100 (≈ 18.4 to 184 µM)	10 to 100 (≈ 18.4 to 184 µM)	–	–	–	–	–	–	–	–	–	–	–
Cc1cc(Oc2ccc(C(F)(F)F)cc2Cl)ccc1OC(C)C(=O)C(C#N)c1cccc(Br)c1 (stereo not drawn) [compound 47]	1 to 10 (≈ 1.81 to 18.1 µM)	1 to 10 (≈ 1.81 to 18.1 µM)	1 to 10 (≈ 1.81 to 18.1 µM)	1 to 10 (≈ 1.81 to 18.1 µM)	1 to 10 (≈ 1.81 to 18.1 µM)	1 to 10 (≈ 1.81 to 18.1 µM)	1 to 10 (≈ 1.81 to 18.1 µM)	≤ 1	10 to 100 (≈ 18.1 to 181 µM)	10 to 100 (≈ 18.1 to 181 µM)	–	–	–	–	–	–	–	–	–	–	–
CC(Oc1cc(Cl)cc(Oc2ccc(C(F)(F)F)cc2Cl)c1)C(=O)C(C#N)c1ccc(Cl)c(Cl)c1 (stereo not drawn) [compound 212]	–	–	–	–	–	–	–	–	–	–	≤ 1	≤ 1	≤ 1	≤ 1	≤ 1	≤ 1	1 to 10 (≈ 1.78 to 17.8 µM)	≤ 1	1 to 10 (≈ 1.78 to 17.8 µM)	≤10 (10-1 µg/ml)	IC (Pasteurella from fish; Pasteurella piscicida KP94-05): ≤10 (10-1 µg/ml); IC (Pasteurella from fish; Pasteurella piscicida KP94-06): ≤10 (10-1 µg/ml); IC (Enterococcus from fish; Enterococcus Seriolicida HI): ≤ 1 µg/mL; IC (Enterococcus from fish; [12]): ≤ 1 µg/mL; IC (Enterococcus from fish; [13]): ≤ 1 µg/mL; IC (Enterococcus from fish; [14]): ≤ 1 µg/mL; IC (Enterococcus from fish; [15]): ≤ 1 µg/mL; IC (Enterococcus from fish; [16]): ≤ 1 µg/mL; IC (Enterococcus from fish; [17]): ≤ 1 µg/mL; MIC (Enterococcus from fish): ≤ 1 µg/mL; IC (Enterococcus from fish; [18]): ≤ 1 µg/mL; IC (Enterococcus from fish; [19]): ≤ 1 µg/mL; IC (Enterococcus from fish; [20]): ≤ 1 µg/mL; MIC [9]: ≤ 1 µg/mL; MIC [10]: 10 to 100 µg/mL (≈ 17.8 to 178 µM); MIC [11]: 10 to 100 µg/mL (≈ 17.8 to 178 µM)
CC(Oc1cc(Cl)cc(Oc2ccc(C(F)(F)F)cc2Cl)c1)C(=O)C(C#N)c1cccc(Br)c1 (stereo not drawn) [compound 213]	–	–	–	–	–	–	–	–	–	–	1 to 10 (≈ 1.74 to 17.4 µM)	≤ 1	≤ 1	≤ 1	1 to 10 (≈ 1.74 to 17.4 µM)	1 to 10 (≈ 1.74 to 17.4 µM)	1 to 10 (≈ 1.74 to 17.4 µM)	1 to 10 (≈ 1.74 to 17.4 µM)	1 to 10 (≈ 1.74 to 17.4 µM)	≤10 (10-1 µg/ml)	IC (Pasteurella from fish; Pasteurella piscicida KP94-05): ≤10 (10-1 µg/ml); IC (Pasteurella from fish; Pasteurella piscicida KP94-06): ≤10 (10-1 µg/ml); IC (Enterococcus from fish; Enterococcus Seriolicida HI): ≤ 1 µg/mL; IC (Enterococcus from fish; [12]): ≤ 1 µg/mL; IC (Enterococcus from fish; [13]): ≤ 1 µg/mL; IC (Enterococcus from fish; [14]): ≤ 1 µg/mL; IC (Enterococcus from fish; [15]): ≤ 1 µg/mL; IC (Enterococcus from fish; [16]): ≤ 1 µg/mL; IC (Enterococcus from fish; [17]): ≤ 1 µg/mL; MIC (Enterococcus from fish): ≤ 1 µg/mL; IC (Enterococcus from fish; [18]): ≤ 1 µg/mL; IC (Enterococcus from fish; [19]): ≤ 1 µg/mL; IC (Enterococcus from fish; [20]): ≤ 1 µg/mL; MIC [9]: 1 to 10 µg/mL (≈ 1.74 to 17.4 µM); MIC [10]: 10 to 100 µg/mL (≈ 17.4 to 174 µM); MIC [11]: 10 to 100 µg/mL (≈ 17.4 to 174 µM)
